Data published in patent US20090311176A1, “2-Arylpyrazolo[L,5-Alpha] Pyrimidin-3-YL Acetamide Derivatives as Ligands for Translocator Protein (18 Kda)” (The University of Sydney, priority 2006, published 2009).

Columns and labels:
[1] = system: peripheral benzodiazepine receptor; conditions: monkey occipital cortex, PET; cited from earlier work
[2] = system: Rat glioma C6 cells; experiment: Steroid biosynthesis (pregnenolone) assay in C6 cells; format: cell-based; conditions: 40 μM
Procedure: All compounds were used at the same concentration (40 μM); at the end of the incubation period (2 h), the amount of pregnenolone was quantified by radio immunoassay (RIA). The values are the mean of at least three determinations.
Rat glioma C6 cells were cultured in Dulbecco's modified Eagle's medium supplemented with 10% FBS, 2 mM L-glutamine, 100 units/mL penicillin and 100 μg/mL streptomycin. Cultures were maintained in a humidified atmosphere of 5% CO2/95% air at 37° C.
C6 cells were seeded in 24-well plates at a density of ˜1×10^6 cells/well in a final volume of 1 ml. Prior to measurement of pregnenolone production the cells were washed three times with a simple salts medium consisting of 140 mM NaCl, 5 mM KCl, 1.8 mM CaCl2, 1 mM MgSO4, 10 mM glucose, 10 mM HEPES/NaOH, pH 7.4, plus 0.1% BSA. During experiments, cells were incubated with this simple salts medium in an air incubator at 37° C. […] At the end of the incubation period (2 h) the cell medium was retained and centrifuged at 1500 g for 10 min. The amount of pregnenolone secreted into the medium was quantified by radio immunoassay (RIA), using an antibody obtained from ICN Biochemical Inc., Calif., USA, under the conditions recommended by the supplier.

[3] = system: Sprague-Dawley rat; experiment: Single intravenous dose toxicity study in the rat; format: in vivo
Procedure: The study involved 2 groups of […] SPF Sprague-Dawley rats (each of 5 males and 5 females), 7 weeks old and weighing between 193.1 g and 215 g for males and between 160.6 g and 180.1 g for females on the day of randomisation. Animals were purchased from Charles River Laboratories France (Domaine des Oncins—69592 L'Arbresle Cedex, France).
Animals were weighed on the day of randomisation, on D7, D14 and D15 (day of necropsy).
General observations were performed on D1, 60 minutes±30 minutes after dosing, again between 3 and 4 hours post-dose and then once a day for 14 days. Functional and neurobehavioural tests were also assessed on D1, 60 minutes±30 minutes after dosing and then on D7 and D 14. Mortality was recorded twice a day for 14 days. All animals surviving at the end of the 14-day period were submitted to gross necropsy.

[4] = Log D determined via HPLC; format: physicochemical
[5] = system: TSPO; experiment: In vivo [^18F]DPA-714 baboon PET studies (baseline, blocking, displacement); parameters: species or system Papio hamadryas baboon
Procedure: This dual modality device has a fully-3D PET scanner with 24 crystal rings and a dual slice CT scanner in the same gantry. It yields a reconstructed PET spatial resolution of 6.3 mm full width at half maximum (FWHM) at the centre of the field of view. The baboon was initially anaesthetized with ketamine (8 mg/kg, im). Anaesthesia was maintained with the use of an iv infusion of ketamine (Parnell Laboratory, Australia) in saline at a dose rate of 0.2 mg ketamine/kg/min. The baboon also received MgSO4 (2 mL iv) given over half an hour plus atropine (1 mg im) plus maxalon (5 mg im). The head of the baboon was immobilised with plastic tape to minimise motion artifacts. A CT scan of the head was completed prior to radioligand injection. Acquisition of the PET data in list mode was commenced just prior to radioligand injection and continued for a period of 60 min. […] At the conclusion of each study the list mode data were sorted into a dynamic scan comprising 54 frames (20×30 s, 30×60 s and 4×300 s). […] The radioligand uptake was converted to units of percent injected dose per volume of brain tissue (% dose/mL) and plotted against time.
Decay corrected time activity curves representing the variation in ligand concentration vs. time were constructed from selected slices for regions of interest over the thalamus, cerebellum, striaturn, cortex, skull and whole brain. After the list-mode acquisition, a whole body PET-CT scan was performed, 2 minutes at each of the six bed positions, to determine other sites of radioligand uptake.

[6] = system: CBR; experiment: CBR binding with [^3H]Ro 15-1788, rat brain tissue; conditions: for affinity for the CBR (in words): [^3H]Ro 15-1788, rat brain tissue; for Ki: [^3H]Ro 15-1788 radioligand, rat brain tissue
[7] = In-vivo stability of [^18F]DPA-714 in rat plasma (TLC); conditions: 2 h post tracer injection
[8] = target: T1, peripheral benzodiazepine receptor (PBR) (Rattus norvegicus, UniProt P16257); experiment: PET in rat model of HSV encephalitis; format: in vivo; conditions: olfactory and retrograde brain areas where HSV-1 accumulates
T1 construct: from tissue; host or cells: living rat (brain, PET and ex vivo biodistribution)
Excerpt: Male Wistar rats were intranasally inoculated with the herpes simplex virus type-1(10^7 PFU in 1001 PBS) or PBS (control). Within a week following inoculation, replicating virus migrated into the brain and induced neuroinflammation.

[9] = target: T2, TSPO (Rattus norvegicus, UniProt P16257); experiment: Ex vivo biodistribution of [^18F]DPA-714 in QA lesioned rats; conditions: pre-injection 15 min before radioligand; PK 11195 5 mg/kg, DPA-714 and DPA-713 1 mg/kg
T2 construct: from tissue; host or cells: living rat; peripheral tissues and brain regions
Procedure: Adult male Wistar rats weighing 300-320 g (Janvier, Le Genest-St-Isle, France) were used for ex vivo experiments.
Quinolonic acid (QA) lesions: Rats were anesthetised with isoflurane (4%, 500 mL/min), placed on a stereotaxic apparatus (Stoelting, Phymep, Paris, France) and were maintained under isoflurane 2% (500 mL/min) during surgery. The skull was exposed and small holes were made with use of a dental drill. […] A cannula (gauge 25, Hamilton, Massy, France) was inserted and a solution of QA (300 nmol in 2 μL phosphate buffer, pH 7.4) was infused at a flow rate of 0.5 μL/min. The syringe was left in place for 4 minutes before being removed to avoid backflow of QA. The bone was filled in with wax and the scalp was then sutured.
For peripheral tissue, results were expressed as the ratio (% ID/g tissue)/(% ID/g blood)±SEM. For brain, results were expressed as the ratio (% ID/g cerebral region)/(% ID/g cerebellum)±SEM. Student t test was performed when the number of data was ≧5. Statistic significance was considered for p<0.05.

COc1ccc(O[11CH3])c(CN(C(C)=O)c2cc(F)ccc2Oc2ccccc2)c1 [[^11C]DAA1106]
binding compared with [^11C](R)-PK 11195 [1]: four times greater

CCN(CC)C(=O)Cc1c(-c2ccc(OCCF)cc2)nn2c(C)cc(C)nc12 [DPA-714, N,N-Diethyl-2-{2-[4-(2-fluoro-ethoxy)-phenyl]-5,7-dimethyl-pyrazolo[1,5-a]pyrimidin-3-yl}-acetamide]
pregnenolone synthesis above baseline ([2]; 2 h, C6 glioma rat cells, RIA): 80%
activity at stimulating neurosteroid synthesis compared with PK 11195 ([2]; same assay): twice more active
toxicity signs overall ([3]; administered once i.v. at 5 mL/kg, batch No. 140306): did not induce any toxicity sign
LD50 ([3]; rat, in vivo, iv): higher than 5 mL/kg
chromatographic logD [4]: 2.44
displacement of [^18F]DPA-714 from whole baboon brain ([5]; cold DPA-714 1 mg/kg at 20 minutes post injection): complete washout of the radioligand
displacement of [^18F]DPA-714 binding in peripheral regions ([5]; cold DPA-714 at 20 minutes after radioligand, data not shown): complete displacement
affinity for the CBR (in words) [6]: negligible
Ki [6]: > 10000 nM

CCN(CC)C(=O)Cc1c(-c2ccc(OC)cc2)nn2c(C)cc(C)nc12 [DPA-713, N,N-Diethyl-2-[2-(4-methoxy-phenyl)-5,7-dimethylpyrazolo[1,5-a]pyrimidin-3-yl]-acetamide]
effect on steroidogenesis (in words) ([2]; 2 h, C6 glioma rat cells): no effect
chromatographic logD [4]: 2.44
affinity for the CBR (in words) [6]: negligible
Ki [6]: > 10000 nM

CCN(CC)C(=O)Cc1c(-c2ccc(OCC[18F])cc2)nn2c(C)cc(C)nc12 [[^18F]DPA-714]
uptake in the baboon skull ([5]; baseline PET study): No uptake
blood brain barrier penetration / accumulation in the brain ([5]; baseline PET study, 100 MBq i.v., baboon): capable of penetrating the blood brain barrier with considerable accumulation in the brain
time to maximum uptake in whole baboon brain ([5]; baseline study, time activity curve): within ten minutes
whole body uptake in the heart, adrenals and salivary glands ([5]; whole body PET after brain imaging): high uptake
radioactivity in rat plasma consisting of the parent compound [7]: 78±1%

CCC(C)N([11CH3])C(=O)c1cc2ccccc2c(-c2ccccc2Cl)n1 (stereo not drawn) [[^11C]PK11195]
uptake in HSE rats versus control (in words) [8]: not significantly increased

CCC(C)N(C)C(=O)c1cc2ccccc2c(-c2ccccc2Cl)n1 (stereo not drawn) [PK 11195]
chromatographic logD [4]: 3.35
inhibition of [^18F]DPA-714 uptake in peripheral tissues by pre-treatment [9]: significant inhibition of radioligand uptake in the heart, bone and liver but not in the adrenals and muscle
affinity for the CBR (in words) [6]: negligible
Ki [6]: > 10000 nM
